The record followed here is patent US6849653B2, “Substituted pyrazolyl benzenesulfamide compounds for the treatment of inflammation” (Pharmacia Corporation, priority 2001, dated 2005).

This experiment addresses T1, IKK2 (IKKβ), rhIKK2 homodimer (Homo sapiens, UniProt O14920).
T1 construct: made in house; host or cells: insect cells (baculovirus; SF9)
T1 sequence (O14920 1-756): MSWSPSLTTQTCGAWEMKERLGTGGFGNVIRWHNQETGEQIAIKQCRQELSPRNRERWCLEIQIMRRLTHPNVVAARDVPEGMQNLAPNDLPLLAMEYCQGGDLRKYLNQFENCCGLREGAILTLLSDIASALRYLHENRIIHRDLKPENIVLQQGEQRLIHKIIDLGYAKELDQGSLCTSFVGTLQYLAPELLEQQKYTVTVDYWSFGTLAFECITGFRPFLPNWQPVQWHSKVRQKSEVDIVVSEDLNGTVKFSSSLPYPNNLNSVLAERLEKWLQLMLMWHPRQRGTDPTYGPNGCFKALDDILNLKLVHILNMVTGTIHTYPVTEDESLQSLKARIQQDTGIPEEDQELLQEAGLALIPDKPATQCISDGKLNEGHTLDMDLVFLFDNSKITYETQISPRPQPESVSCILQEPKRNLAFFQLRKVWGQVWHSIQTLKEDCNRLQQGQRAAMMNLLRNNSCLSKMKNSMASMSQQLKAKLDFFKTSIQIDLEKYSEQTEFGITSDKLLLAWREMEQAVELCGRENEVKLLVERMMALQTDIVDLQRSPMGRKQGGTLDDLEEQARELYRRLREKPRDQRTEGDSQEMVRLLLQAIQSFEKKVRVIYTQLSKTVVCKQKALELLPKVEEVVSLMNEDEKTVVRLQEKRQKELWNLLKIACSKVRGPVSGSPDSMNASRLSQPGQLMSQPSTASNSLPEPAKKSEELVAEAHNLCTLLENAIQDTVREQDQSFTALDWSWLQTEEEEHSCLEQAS
As to the kind of experiment: IKKβ (IKK2) Resin Enzyme Assay. The format is biochemical. The note with it: read-out: IKK2 Resin IC 50. The text has this: cDNAs of human IKK1 and IKK2 were amplified by reverse transcriptase-polymerase chain reaction from human placental RNA (Clonetech). hIKK1 was subcloned into pFastBac HTa (Life Technologies) and expressed as N-terminal His6-tagged fusion protein. The hIKK2 cDNA was amplified using a reverse oligonucleotide primer which incorporated the peptide sequence for a FLAG-epitope tag at the C-terminus of the IKK2 coding region (DYKDDDDKD). The hIKK2:FLAG cDNA was subcloned into the baculovirus vector pFastBac. The rhIKK2 ([…]) mutant was constructed in the same vector used for wild type rhIKK2 using a QuikChange™ mutagenesis kit (Stratagene). Viral stocks of each construct were used to infect insect cells grown in 40L suspension culture. […] Cell lysates were stored at −80° C. until purification of the recombinant proteins was undertaken as described below.
Isolation of rhIKK2 Homodimer
A 10 liter culture of baculovirus-expressing IKK2 tagged with FLAG peptide was centrifuged and the cell pellet (MOI=0.1 and I=72 hrs) was re-suspended in buffer A. These cells were microfluidized, and centrifuged at 100,000×g for 45 min. Supernatant was passed over a G-25 column equilibrated with Buffer A. Protein peak was collected and incubated with anti-FLAG affinity resin on a rotator overnight in buffer B. The resin was washed in batch with 10-15 bed volumes of buffer C. Washed resin was poured into a column and rhIKK2 homodimer was eluted using 5 bed volumes of buffer B containing FLAG peptide. 5 mM DTT, 0.1% NP-40 and BSA (concentrated to 0.1% in final amount) was added to the eluted enzyme before concentrating in using an Amicon membrane with a molecular weight cut-off of 30 kDa. Enzyme was aliquoted and stored at −80° C.
IKKβ kinase activity was measured using a biotinylated IκBα peptide (Gly-Leu-Lys-Lys-Glu-Arg-Leu-Leu-Asp-Asp-Arg-His-Asp-Ser32-Gly-Leu-Asp-Ser36-Met-Lys-Asp-Glu-Glu) (American Peptide Co.). […] contained 5 μM biotinylated IκBα peptide, 0.1 μCi/reaction [γ-^33P] ATP (Amersham) (about 1×10^5 cpm), 1 μM ATP (Sigma), 1 mM DTT (Sigma), 2 mM MgCl2 (Sigma), 2 mM MnCl2 (Sigma), 10 mM NaF (Sigma), 25 mM Hepes (Sigma) buffer, pH 7.6 and 20 μl enzyme solution and […] inhibitor in a final volume of 50 μl. After incubation at 25° C. for 30 min, 150 μl resin (Dowex anion-exchange resin AG1X8 200-400 mesh) in 900 mM formate, pH 3.0 was added to each well to stop the reaction. Resin was allowed to settle for one hour and 50 ul of supernatant was removed to a Micolite-2 flat bottom plate (Dynex). 150 μl of scintillation fluid (Microscint 40) (Packard) was added to each well. Incorporation of [γ-^33P] ATP was measured using a Top-Count NXT (Packard).

Where a name gives a salt, the structure may show the parent alone. Read-outs that look alike come from different tables or passages of the source.

In the case of `CS(=O)(=O)c1ccc(-n2nc(C(N)=O)c3ccc4ccc(NC(=O)c5cccnc5Cl)cc4c32)cc1` [Example 41, 8-{[(2-chloropyridin-3-yl)carbonyl]amino}-1-[4-(methylsulfonyl)phenyl]-1H-benzo[g]indazole-3-carboxamide], the IC50 (Table 2, values given as bins) is at most 1000 nM.

As to `NC(=O)c1nn(-c2ccc3c(c2)OCO3)c2c1ccc1ccc(N)cc12` [Example 56, 8-amino-1-(1,3-benzodioxol-5-yl)-1H-benzo[g]indazole-3-carboxamide], the IC50 (Table 4, values given as bins) lay in the range of 1000 to 10000 nM.

Take `CS(=O)(=O)c1ccc(-n2nc(C(N)=O)c3ccc4ccc(NC(=O)c5cccc(Cl)c5Cl)cc4c32)cc1` [Example 40, 8-[(2,3-dichlorobenzoyl)amino]-1-[4-(methylsulfonyl)phenyl]-1H-benzo[g]indazole-3-carboxamide]: for the setting “Table 2, values given as bins”, the IC50 is at most 1000 nM.

As for `NC(=O)c1nn(-c2ccc(F)cc2F)c2c1ccc1ccc(NC(=O)c3cccnc3Cl)cc12` [Example 52, 8-{[(2-chloropyridin-3-yl)carbonyl]amino}-1-(2,4-difluorophenyl)-1H-benzo[g]indazole-3-carboxamide], the IC50 (Table 3) is at most 1000 nM.

In the case of `NC(=O)c1nn(-c2ccc(F)cc2)c2c1ccc1ccc(NC(=O)c3ccccc3Cl)cc12` [Example 47, 8-[(2-chlorobenzoyl)amino]-1-(4-fluorophenyl)-1H-benzo[g]indazole-3-carboxamide], where the note is “Table 3”, the IC50 is 1000 to 10000 nM.

In the case of `CS(=O)(=O)c1ccc(-n2nc(C(N)=O)c3ccc4ccc(NC(=O)c5ccccc5F)cc4c32)cc1` [Example 42, 8-[(2-fluorobenzoyl)amino]-1-[4-(methylsulfonyl)phenyl]-1H-benzo[g]indazole-3-carboxamide], the IC50 (Table 2, values given as bins) is 1000 to 10000 nM.

For `CS(=O)(=O)c1ccc(-n2nc(C(N)=O)c3ccc4ccc(NC(=O)c5ccccc5C(F)(F)F)cc4c32)cc1` [Example 39, 1-[4-(methylsulfonyl)phenyl]-8-{[2-(trifluoromethyl)benzoyl]amino}-1H-benzo[g]indazole-3-carboxamide], the IC50 (Table 2, values given as bins) was 1000 to 10000 nM.

For the molecule `CS(=O)(=O)c1ccc(-n2nc(C(N)=O)c3ccc4ccc(NC(=O)c5ccccc5Cl)cc4c32)cc1` [Example 37, 8-[(2-chlorobenzoyl)amino]-1-[4-(methylsulfonyl)phenyl]-1H-benzo[g]indazole-3-carboxamide], the IC50 (Table 2, values given as bins) was at most 1000 nM.

Consider `NC(=O)c1nn(-c2ccc(F)cc2)c2c1cc(-c1cccnc1)c1ccc(NC(=O)c3ccncc3Cl)cc12` [Example 45, 8-[(3-chloroisonicotinoyl(amino]-1-(4-fluorophenyl)-5-pyridin-3-yl-1H-benzo[g]indazole-3-carboxamidedihydrochloride], for which, for the setting “Table 3”, the IC50 lay in the range of 1000 to 10000 nM.

Consider `NC(=O)c1nn(-c2ccc3c(c2)OCO3)c2c1ccc1ccc(NC(=O)c3cccnc3Cl)cc12` [Example 55, 1-(1,3-benzodioxol-5-yl)-8-{[(2-chloropyridin-3-yl)carbonyl]amino}-1H-benzo[g]indazole-3-carboxamide], for which, for the setting “Table 4, values given as bins”, the IC50 is at most 1000 nM.

`NC(=O)c1nn(-c2ccc(F)cc2)c2c1cc(Br)c1ccc(NC(=O)c3ccncc3Cl)cc12` [Example 44]: the IC50 (Table 3) is at most 1000 nM.

Take `Cc1ccccc1C(=O)Nc1ccc2ccc3c(C(N)=O)nn(-c4ccc(S(C)(=O)=O)cc4)c3c2c1` [Example 38, 8-[(2-methylbenzoyl)amino]-1-[4-(methylsulfonyl)phenyl]-1H-benzo[g]indazole-3-carboxamide]: the IC50 (Table 2, values given as bins) is at most 1000 nM.

Take `CS(=O)(=O)Nc1ccc2ccc3c(C(N)=O)nn(-c4ccc(F)cc4)c3c2c1` [Example 50, 1-(4-fluorophenyl)-8-[(methylsulfonyl)amino]-1H-benzo[g]indazole-3-carboxamide]: the IC50 (Table 3) was at most 1000 nM.

For `NC(=O)c1nn(-c2ccc3c(c2)OCO3)c2c1ccc1ccc(NC(=O)c3ccncc3Cl)cc12` [Example 58, 1-(1,3-benzodioxol-5-yl)-8-[(3-chloroisonicotinoyl)amino]-1H-benzo[g]indazole-3-carboxamide], the IC50 (Table 4, values given as bins) was at most 1000 nM.

As for `NC(=O)c1nn(-c2ccc(F)cc2)c2c1ccc1ccc(N)cc12` [Example 46, 8-amino-1-(4-fluorophenyl)-1H-benzo[g]indazole-3-carboxamide], for the setting “Table 3”, the IC50 was 10000 to 100000 nM.
